Experimental data published in ChEMBL document CHEMBL1629665, “Contribution of vraSR and graSR point mutations to vancomycin resistance in vancomycin-intermediate Staphylococcus aureus” (2009).
In brackets after ≈: the same amount, converted by molar mass. Where a SMILES comes first, the peptide text is derived from it. Bridges are numbered along the chain shown (N, C = ends). [ ]: non-standard residue; d: D form. The star is where a group is joined. Ileψ(thiazoline)Cys = CC[C@H](C)[C@H](N)C1=N[C@H](C(=O)*)CS1; dOrn = NCCC[C@@H](N)C(=O)O

Experiments:
Format in all cases: functional
[1] = test system: Staphylococcus aureus; assay: Antibacterial activity against vancomycin-intermediate Staphylococcus aureus Mu50 after 24 hrs by Etest; settings: Mu50, 24 h
[2] = test system: Staphylococcus aureus; assay: Antibacterial activity against vancomycin-susceptible Staphylococcus aureus Mu50omega expressing vraSm mutant gene after 48 hrs by Etest
[3] = test system: Staphylococcus aureus; assay: Antibacterial activity against vancomycin-susceptible Staphylococcus aureus Mu50omega expressing vraSm mutant gene after 24 hrs by Etest
[4] = test system: Staphylococcus aureus; assay: Antibacterial activity against vancomycin-intermediate Staphylococcus aureus Mu50 after 48 hrs by Etest; settings: Mu50, 48 h
[5] = test system: Staphylococcus aureus; assay: Antibacterial activity against vancomycin-susceptible Staphylococcus aureus Mu50omega after 24 hrs by Etest
[6] = test system: Staphylococcus aureus; assay: Antibacterial activity against vancomycin-susceptible Staphylococcus aureus Mu50omega expressing vraSm, graRm mutant gene after 24 hrs by Etest
[7] = test system: Staphylococcus aureus; assay: Antibacterial activity against vancomycin-susceptible Staphylococcus aureus Mu50omega expressing vraSn mutant gene after 24 hrs by Etest
[8] = test system: Staphylococcus aureus; assay: Antibacterial activity against vancomycin-susceptible Staphylococcus aureus Mu50omega expressing vraSn mutant gene after 48 hrs by Etest
[9] = test system: Staphylococcus aureus; assay: Antibacterial activity against vancomycin-susceptible Staphylococcus aureus Mu50omega expressing vraSm, graRm mutant gene after 48 hrs by Etest
[10] = test system: Staphylococcus aureus; assay: Antibacterial activity against vancomycin-susceptible Staphylococcus aureus Mu50omega after 48 hrs by Etest
[11] = test system: Staphylococcus aureus; assay: Antibacterial activity against vancomycin-susceptible Staphylococcus aureus Mu50omega expressing vraSn mutant gene after 48 hrs by Etest in presence of Sulbactam
[12] = test system: Staphylococcus aureus; assay: Antibacterial activity against vancomycin-intermediate Staphylococcus aureus Mu50 after 24 hrs by Etest in presence of Sulbactam; settings: Mu50, 24 h
[13] = test system: Staphylococcus aureus; assay: Antibacterial activity against vancomycin-susceptible Staphylococcus aureus Mu50omega after 24 hrs by Etest in presence of Sulbactam
[14] = test system: Staphylococcus aureus; assay: Antibacterial activity against vancomycin-susceptible Staphylococcus aureus Mu50omega expressing vraSm mutant gene after 48 hrs by Etest in presence of Sulbactam
[15] = test system: Staphylococcus aureus; assay: Antibacterial activity against vancomycin-susceptible Staphylococcus aureus Mu50omega after 48 hrs by Etest in presence of Sulbactam
[16] = test system: Staphylococcus aureus; assay: Antibacterial activity against vancomycin-susceptible Staphylococcus aureus Mu50omega expressing vraSm, graRm mutant gene after 48 hrs by Etest in presence of Sulbactam
[17] = test system: Staphylococcus aureus; assay: Antibacterial activity against vancomycin-susceptible Staphylococcus aureus Mu50omega expressing vraSm, graRm mutant gene after 24 hrs by Etest in presence of Sulbactam
[18] = test system: Staphylococcus aureus; assay: Antibacterial activity against vancomycin-susceptible Staphylococcus aureus Mu50omega expressing vraSn mutant gene after 24 hrs by Etest in presence of Sulbactam
[19] = test system: Staphylococcus aureus; assay: Antibacterial activity against vancomycin-susceptible Staphylococcus aureus Mu50omega expressing vraSm mutant gene after 24 hrs by Etest in presence of Sulbactam
[20] = test system: Staphylococcus aureus; assay: Antibacterial activity against vancomycin-intermediate Staphylococcus aureus Mu50 after 48 hrs by Etest in presence of Sulbactam; settings: Mu50, 48 h

SMILES: CCCCCCCCCC(=O)N[C@@H](Cc1c[nH]c2ccccc12)C(=O)N[C@H](CC(N)=O)C(=O)N[C@@H](CC(=O)O)C(=O)N[C@@H]1C(=O)NCC(=O)N[C@@H](CCCN)C(=O)N[C@@H](CC(=O)O)C(=O)N[C@H](C)C(=O)N[C@@H](CC(=O)O)C(=O)NCC(=O)N[C@H](CO)C(=O)N[C@@H]([C@H](C)CC(=O)O)C(=O)N[C@@H](CC(=O)c2ccccc2N)C(=O)O[C@@H]1C
- MIC [1]: 2 µg/mL (≈ 1.23 µM)
- MIC [2]: 1.5 µg/mL (≈ 0.926 µM)
- MIC [3]: 1.5 µg/mL (≈ 0.926 µM)
- MIC [4]: 2 µg/mL (≈ 1.23 µM)
- MIC [5]: 1 µg/mL (≈ 0.617 µM)
- MIC [6]: 2 µg/mL (≈ 1.23 µM)
- MIC [7]: 1.5 µg/mL (≈ 0.926 µM)
- MIC [8]: 1.5 µg/mL (≈ 0.926 µM)
- MIC [9]: 2 µg/mL (≈ 1.23 µM)
- MIC [10]: 1 µg/mL (≈ 0.617 µM)

SMILES: CC1(C)S[C@@H]2[C@H](NC(=O)[C@H](N)c3ccccc3)C(=O)N2[C@H]1C(=O)O [AMPICILLIN]
- MIC [11]: 48 µg/mL
- MIC [1]: 8 µg/mL (≈ 22.9 µM)
- MIC [2]: 12 µg/mL (≈ 34.3 µM)
- MIC [3]: 12 µg/mL (≈ 34.3 µM)
- MIC [4]: 8 µg/mL (≈ 22.9 µM)
- MIC [5]: 1 µg/mL (≈ 2.86 µM)
- MIC [6]: 12 µg/mL (≈ 34.3 µM)
- MIC [12]: 48 µg/mL
- MIC [13]: 2 µg/mL
- MIC [7]: 12 µg/mL (≈ 34.3 µM)
- MIC [14]: 64 µg/mL
- MIC [8]: 12 µg/mL (≈ 34.3 µM)
- MIC [15]: 2 µg/mL
- MIC [9]: 12 µg/mL (≈ 34.3 µM)
- MIC [10]: 1 µg/mL (≈ 2.86 µM)
- MIC [16]: 64 µg/mL
- MIC [17]: 64 µg/mL
- MIC [18]: 48 µg/mL
- MIC [19]: 64 µg/mL
- MIC [20]: 48 µg/mL

SMILES: CC[C@H]1OC(=O)[C@H](C)[C@@H](O[C@H]2C[C@@](C)(OC)[C@@H](O)[C@H](C)O2)[C@H](C)[C@@H](O[C@@H]2O[C@H](C)C[C@H](N(C)C)[C@H]2O)[C@](C)(O)C[C@@H](C)CN(C)[C@H](C)[C@@H](O)[C@]1(C)O [AZITHROMYCIN]
- MIC [1]: > 256 µg/mL
- MIC [4]: > 256 µg/mL
- MIC [5]: > 256 µg/mL
- MIC [10]: > 256 µg/mL

SMILES: CC[C@H](C)[C@H](N)C1=N[C@H](C(=O)N[C@@H](CC(C)C)C(=O)N[C@H](CCC(=O)O)C(=O)N[C@H](C(=O)N[C@H]2CCCCNC(=O)[C@H](CC(N)=O)NC(=O)[C@@H](CC(=O)O)NC(=O)[C@H](Cc3cnc[nH]3)NC(=O)[C@@H](Cc3ccccc3)NC(=O)[C@H]([C@@H](C)CC)NC(=O)[C@@H](CCCN)NC2=O)[C@@H](C)CC)CS1 [BACITRACIN] ({Ileψ(thiazoline)Cys}-L[dE]IK[dOrn]I[dF]H[dD]N; lactam 4-C)
- MIC [1]: > 256 µg/mL
- MIC [2]: > 256 µg/mL
- MIC [3]: 256 µg/mL (≈ 180 µM)
- MIC [4]: > 256 µg/mL
- MIC [5]: 12 µg/mL (≈ 8.43 µM)
- MIC [6]: 256 µg/mL (≈ 180 µM)
- MIC [7]: 128 µg/mL (≈ 90 µM)
- MIC [8]: 256 µg/mL (≈ 180 µM)
- MIC [9]: > 256 µg/mL
- MIC [10]: 24 µg/mL (≈ 16.9 µM)

SMILES: CO[C@@]1(NC(=O)Cc2cccs2)C(=O)N2C(C(=O)O)=C(COC(N)=O)CS[C@@H]21 [CEFOXITIN]
- MIC [1]: > 256 µg/mL
- MIC [2]: > 256 µg/mL
- MIC [3]: > 256 µg/mL
- MIC [4]: > 256 µg/mL
- MIC [5]: 32 µg/mL (≈ 74.9 µM)
- MIC [6]: > 256 µg/mL
- MIC [7]: > 256 µg/mL
- MIC [8]: > 256 µg/mL
- MIC [9]: > 256 µg/mL
- MIC [10]: 32 µg/mL (≈ 74.9 µM)

SMILES: CO/N=C(\C(=O)N[C@@H]1C(=O)N2C(C(=O)O)=CCS[C@H]12)c1csc(N)n1 [CEFTIZOXIME]
- MIC [1]: > 256 µg/mL
- MIC [2]: > 256 µg/mL
- MIC [3]: > 256 µg/mL
- MIC [4]: > 256 µg/mL
- MIC [5]: 0.38 µg/mL (≈ 0.991 µM)
- MIC [6]: > 256 µg/mL
- MIC [7]: > 256 µg/mL
- MIC [8]: > 256 µg/mL
- MIC [9]: > 256 µg/mL
- MIC [10]: 0.5 µg/mL (≈ 1.3 µM)

SMILES: CO/N=C(\C(=O)N[C@@H]1C(=O)N2C(C(=O)O)=C(CSc3nc(=O)c(O)nn3C)CS[C@H]12)c1csc(N)n1 [CEFTRIAXONE]
- MIC [1]: > 256 µg/mL
- MIC [3]: > 256 µg/mL
- MIC [4]: > 256 µg/mL
- MIC [5]: 3 µg/mL (≈ 5.41 µM)
- MIC [6]: > 256 µg/mL
- MIC [7]: > 0.256 µg/mL
- MIC [10]: > 256 µg/mL

SMILES: CC(=O)OCC1=C(C(=O)O)N2C(=O)[C@@H](NC(=O)Cc3cccs3)[C@H]2SC1 [CEPHALOTHIN]
- MIC [1]: 128 µg/mL (≈ 323 µM)
- MIC [2]: > 256 µg/mL
- MIC [3]: > 256 µg/mL
- MIC [4]: 128 µg/mL (≈ 323 µM)
- MIC [5]: 0.25 µg/mL (≈ 0.631 µM)
- MIC [6]: > 256 µg/mL
- MIC [7]: > 256 µg/mL
- MIC [8]: > 256 µg/mL
- MIC [9]: > 256 µg/mL
- MIC [10]: 0.38 µg/mL (≈ 0.959 µM)

SMILES: O=C(O)c1cn(C2CC2)c2cc(N3CCNCC3)c(F)cc2c1=O [CIPROFLOXACIN]
- MIC [1]: > 32 µg/mL
- MIC [4]: > 32 µg/mL
- MIC [5]: > 32 µg/mL
- MIC [10]: > 32 µg/mL

SMILES: CC[C@H]1OC(=O)[C@H](C)[C@@H](O[C@H]2C[C@@](C)(OC)[C@@H](O)[C@H](C)O2)[C@H](C)[C@@H](O[C@@H]2O[C@H](C)C[C@H](N(C)C)[C@H]2O)[C@](C)(OC)C[C@@H](C)C(=O)[C@H](C)[C@@H](O)[C@]1(C)O [CLARITHROMYCIN]
- MIC [1]: > 256 µg/mL
- MIC [4]: > 256 µg/mL
- MIC [5]: > 256 µg/mL
- MIC [10]: > 256 µg/mL

SMILES: CCC[C@@H]1C[C@@H](C(=O)N[C@@H]([C@H]2O[C@H](SC)[C@H](O)[C@@H](O)[C@H]2O)[C@H](C)Cl)N(C)C1 [CLINDAMYCIN]
- MIC [1]: > 256 µg/mL
- MIC [4]: > 256 µg/mL
- MIC [5]: > 256 µg/mL
- MIC [10]: > 256 µg/mL
